IC50 and CC50 data for 15 molecules are collected here from patent EP0855398B1, “SESQUITERPENE DERIVATIVES HAVING ANTIVIRAL ACTIVITY” (SHIONOGI & CO., LTD., priority 1995, dated 1997).

Converted amounts (≈) assume the structure as drawn. Read-outs that look alike come from different tables or passages of the source. A value given as a limit tells only on which side of the number the result lay.

In data set [1] the test system is Influenza virus A/WSN/33 (H1N1). Kind of data set: microbe, parasite or virus in culture. Format: cell-based. The note with it: 72 h.
The next data set in a line: in vitro. The conditions noted are these: bovine; for CC50 at 72 h: mdbk cells.
Setting [2] is: viral strain: Influenza virus A/WSN/33 (H1N1), Cell: MDBK, […], 3 days, read-out: IC50.

With `C[C@H]1CC[C@H]2C(C)(C)[C@@H](N)CC[C@]23Oc2c(c(O)cc4c2CNC4=O)C[C@]13C` [Compound (47a), (6aR, 7S, 9aS, 11S, 13aS)-11-amino-2,3,6,6a, 7,8,9,9a, 10, 11, 12, 13-dodecahydro-5-hydroxy-6a, 7, 10, 10-tetramethyl-3-oxo-1H-benzo[8,8a][1]benzopyrano[2,3-e]isoindole], in data set [1] (setting [2]), the IC50 (commonly the concentration that gives 50% inhibition) is 0.02 µg/mL (≈ 0.052 µM). In addition, in “in vitro”, the CC50 was above 10 µg/mL.

Consider `C[C@H]1CC[C@H]2C(C)(C)[C@@H](O)CC[C@]23Oc2c(c(O)cc4c2CNC4)C[C@]13C` [Compound (34a), (6aR, 7S, 9aS, 11S, 13aS)-2,3,6,6a, 7,8,9,9a, 10, 11, 12, 13-dodecahydro-5, 11-dihydroxy-6a, 7,10,10-tetramethyl-1H-benzo[8,8a][1]benzopyrano[2,3-e]isoindole], for which, in data set [1] (setting [2]), the IC50 turned out to be 0.04 µg/mL (≈ 0.108 µM). Also, in the data set “in vitro”, the CC50 was above 10 µg/mL.

As for `C[C@H]1CC[C@H]2C(C)(C)[C@@H](OC(=O)c3cnccn3)CC[C@]23Oc2c(c(O)cc4c2CNC4=O)C[C@]13C` [Compound (35b), (6aR, 7S, 9aS, 11S, 13aS)-2,3,6,6a, 7,8,9,9a, 10, 11, 12, 13-dodecahydro-5-hydroxy-6a, 7, 10, 10-tetramethyl-3-oxo-11-[(2-pyrazyl)carbonyloxy]-1H-benzo[8,8a][1]benzopyrano[2,3-e]isoindole], the IC50 in data set [1] (setting [2]) lay in the range of 0.002 to 0.004 µg/mL (≈ 0.00407 to 0.00814 µM). In the data set “in vitro”, this molecule registered a CC50 at 72 h of 10 µg/mL (≈ 20.3 µM).

Regarding `CCCOC1NC(=O)c2cc(O)c3c(c21)O[C@@]12CC[C@H](O)C(C)(C)[C@@H]1CC[C@H](C)[C@@]2(C)C3` (stereo partly drawn) [Compound (30c), (6aR, 7S, 9aS, 11S, 13aS)-2,3,6,6a, 7,8,9,9a, 10, 11, 12, 13-dodecahydro-5, 11-dihydroxy-1-propoxy-6a, 7, 10, 10-tetramethyl-3-oxo-1H-benzo[8,8a][1]benzopyrano[2,3-e]isoindole], the IC50 in data set [1] (setting [2]) was 0.04 µg/mL (≈ 0.0902 µM). Also, the CC50 in the data set “in vitro” is 20 µg/mL (≈ 45.1 µM).

In the case of `C[C@H]1CC[C@H]2C(C)(C)[C@@H](OC(=O)c3cccnc3)CC[C@]23Oc2c(c(O)cc4c2CNC4=O)C[C@]13C` [Compound (35a), (6aR, 7S, 9aS, 11S, 13aS)-2,3,6,6a, 7,8,9,9a, 10, 11, 12, 13-dodecahydro-5-hydroxy-6a, 7, 10, 10-tetramethyl-3-oxo-11-[(3-pyridyl)carbonyloxy]-1H-benzo[8,8a][1]benzopyrano[2,3-e]isoindole], the IC50 in data set [1] (setting [2]) was found to be 0.001 µg/mL (≈ 0.00204 µM). For the same molecule, the CC50 in the data set “in vitro” stood at 10 µg/mL (≈ 20.4 µM).

As to `COC1NC(=O)c2cc(O)c3c(c21)O[C@@]12CC[C@H](O)C(C)(C)[C@@H]1CC[C@H](C)[C@@]2(C)C3` (stereo partly drawn) [Compound (30b), (6aR, 7S, 9aS, 11S, 13aS)-2,3,6,6a, 7,8,9,9a, 10, 11, 12, 13-dodecahydro-5, 11-dihydroxy-1-methoxy-6a, 7, 10, 10-tetramethyl-3-oxo-1H-benzo[8,8a][1]benzopyrano[2,3-e]isoindole], the IC50 in data set [1] (setting [2]) amounted to 0.04 µg/mL (≈ 0.0963 µM). The molecule also registered a CC50 in the data set “in vitro” of 20 µg/mL (≈ 48.1 µM).

In the case of `C[C@H]1CC[C@H]2C(C)(C)C(=NO)CC[C@]23Oc2c(c(OP(=O)(O)O)cc4c2CNC4=O)C[C@]13C.[Na]` [Compound (64), (6aR, 7S, 9aS, 13aS)-2,3,6,6a, 7,8,9,9a, 10, 11, 12, 13-dodecahydro-11-hydroxyimino-5-dihydroxyphosphinyloxy-6a, 7, 10, 10-tetramethyl-3-oxo 1H-benzo[8,8a][1]benzopyrano[2,3-e]isoindole monosodium salt], 0.001 µg/mL corresponded to half-maximal inhibition in data set [1] (H1N1|WSN, MDBK) (IC50). This molecule gave a CC50 in the data set “in vitro” above 10 µg/mL.

Take `C[C@H]1CC[C@H]2C(C)(C)[C@H]3O[C@H]3C[C@]23Oc2c(c(O)cc4c2CNC4=O)C[C@]13C` [Compound (43a), (6a R, 7 S, 9a S, 11 R, 12 S, 13a S)-11,12-epoxy-2,3,6,6a, 7,8,9,9a, 10, 11, 12, 13-dodecahydro-5-hydroxy-6a, 7, 10, 10-tetramethyl-3-oxo-1H-benzo[8,8a][1]benzopyrano[2,3-e]isoindole]: the IC50 in data set [1] (setting [2]) lay in the range of 0.001 to 0.002 µg/mL (≈ 0.00261 to 0.00522 µM). For the same molecule, the CC50 in “in vitro” came to 40 µg/mL (≈ 104 µM).

Consider `C[C@H]1CC[C@H]2C(C)(C)[C@@H](O)[C@@H](OC(=O)c3ccccc3)C[C@]23Oc2c(c(O)cc4c2CNC4=O)C[C@]13C` [Compound (50c), (6a R, 7 S, 9a S, 11 R, 12 S, 13a S)-12-benzoyloxy-2,3,6,6a, 7,8,9,9a, 10, 11, 12, 13-dodecahydro-5,11-dihydroxy-6a, 7, 10, 10-tetramethyl-3-oxo-1H-benzo[8,8a][1]benzopyrano[2,3-e]isoindole], for which the IC50 in data set [1] (setting [2]) was 0.05 µg/mL (≈ 0.0989 µM). The CC50 in “in vitro” is 5 to 10 µg/mL (≈ 9.89 to 19.8 µM).

With `C[C@H]1CC[C@H]2C(C)(C)[C@H](O)CC[C@]23Oc2c(c(OP(=O)(O)O)cc4c2CNC4=O)C[C@]13C.[Na]` [Compound (59b), (6a R, 7 S, 9a S, 11 R, 13a S)-2,3,6,6a, 7,8,9,9a, 10, 11, 12, 13-dodecahydro-11-hydroxy-5-dihydroxyphosphinyloxy-6a, 7, 10,10-tetramethyl-3-oxo-1H-benzo[8,8a][1]benzopyrano[2,3-e]isoindole monosodium salt], in data set [1] (H1N1|WSN, MDBK), the IC50 came out at 0.001 µg/mL. For the same molecule, the CC50 in the data set “in vitro” is above 10 µg/mL.

Regarding `C[C@H]1CC[C@H]2C(C)(C)[C@@H](O)CC[C@]23Oc2c(c(O)cc4c2CN(S(C)(=O)=O)C4=O)C[C@]13C` [Compound (28e), (6aR, 7S, 9aS, 11S, 13aS)-2,3,6,6a, 7,8,9,9a, 10, 11, 12, 13-dodecahydro-5, 11-dihydroxy-6a, 7, 10, 10-tetramethyl-2-methanesulfonyl-3-oxo-1H-benzo[8,8a][1]benzopyrano[2,3-e]isoindole], the IC50 in data set [1] (setting [2]) stood at 0.03 µg/mL (≈ 0.0647 µM). The same molecule had a CC50 in “in vitro” above 10 µg/mL.

On to `C[C@H]1CC[C@H]2C(C)(C)C(=NO)CC[C@]23Oc2c(c(O)cc4c2CNC4=O)C[C@]13C` [Compound (51a), (6a R, 7 S, 9a S, 13a S)-2,3,6,6a, 7,8,9,9a, 10, 11, 12, 13-dodecahydro-5-hydroxy-11-hydroxyimino-6a, 7, 10, 10-tetramethyl-3-oxo-1H-benzo[8,8a][1]benzopyrano[2,3-e]isoindole], for which the IC50 in data set [1] (setting [2]) was 0.0016 µg/mL (≈ 0.00402 µM). The molecule further had a CC50 in the data set “in vitro” above 10 µg/mL.

Consider `C[C@H]1CC[C@H]2C(C)(C)[C@@H](O)CC[C@]23Oc2c(c(O)cc4c2CN(C)C4=O)C[C@]13C` [Compound (28a), (6aR, 7S, 9aS, 11S, 13aS)-2,3,6,6a, 7,8,9,9a, 10, 11, 12, 13-dodecahydro-5, 11-dihydroxy-2,6a, 7, 10, 10-pentamethyl-3-oxo-1H-benzo[8,8a][1]benzopyrano[2,3-e]isoindole], for which the IC50 in data set [1] (setting [2]) turned out to be 0.02 µg/mL (≈ 0.0501 µM). In “in vitro”, this molecule registered a CC50 of 10 to 20 µg/mL (≈ 25 to 50.1 µM).

For `C[C@H]1CC[C@H]2C(C)(C)C(=NNC(N)=O)CC[C@]23Oc2c(c(O)cc4c2CNC4=O)C[C@]13C` [Compound (51d), (6a R, 7 S, 9a S, 13a S)-2,3,6,6a, 7,8,9,9a, 10, 11, 12, 13-dodecahydro-5-hydroxy-6a, 7, 10, 10-tetramethyl-3-oxo-11-ureidoimino-1H-benzo[8,8a][1]benzopyrano[2,3-e]isoindole], in data set [1] (setting [2]), the IC50 stood at 0.005 µg/mL (≈ 0.0113 µM). For the same molecule, the CC50 in the data set “in vitro” is above 10 µg/mL.

Turning to `C[C@H]1CC[C@H]2C(C)(C)[C@@H](O)CC[C@]23Oc2c(c(O)cc4c2C(=O)N(C)C4=O)C[C@]13C` [Compound (32b), (6aR, 7S, 9aS, 11S, 13aS)-2,3,6,6a, 7,8,9,9a, 10, 11, 12, 13-dodecahydro-5, 11-dihydroxy-2,6a, 7, 10, 10-pentamethyl-13-dioxo-1H-benzo[8,8a][1]benzopyrano[2,3-e]isoindole], the IC50 in data set [1] (setting [2]) stood at 0.04 µg/mL (≈ 0.0967 µM). The CC50 at 72 h in the data set “in vitro” came to 10 µg/mL (≈ 24.2 µM).
